Measurements from patent publication US12600757B2, “Peptides inhibiting gamma-c-cytokine activity and methods of use” (Bioniz, LLC, priority 2017, dated 2026).
Bridge positions count the residues as written; N and C are the ends. Square brackets hold non-standard residues; d marks the D form. Ends that are not written are not given here. Peptide text beside a SMILES is read from it. R5 = C=CCCC[C@@](C)(N)C(=O)O; S5 = C=CCCC[C@](C)(N)C(=O)O

What was measured:
[1] = Time-course protease stability in simulated intestinal fluid (RP-HPLC); conditions: simulated intestinal fluid (USP), 37° C., over 60 minutes
Source text: To evaluate the gastric stability of the custom peptide derivatives containing one or more intra-peptide hydrocarbon linker elements of the present embodiments a time-course protease stability measurement of unmodified SEQ ID NO: 3 in comparison with a representative custom peptide derivative of SEQ ID NO: 3 containing one hydrocarbon linker element (SEQ ID NO: 39), and another representative custom peptide derivative of SEQ ID NO: 3 containing two hydrocarbon linker elements and certain amino acid positions in the (D) stereochemical configuration (SEQ ID NO: 57) was carried out in simulated intestinal fluid over 60 minutes. […] Simulated intestinal fluid was made according to USP specifications (Test Solutions, United States Pharmacopeia 36). 50 μL of 10 mg/mL peptide was mixed with 450 μL pre-warmed (37° C.) simulated intestinal fluid, and aliquots of the reaction mixture were removed at prescribed time intervals over a time-period of 60 minutes and stopped with 0.1 M HCl. Peptide stability was measured by reversed phase HPLC on a Phenomenex Aeris Peptide column (4.6×250 mm) with settings: 3.6 μm particle size, non-porous; 5.0 μL injection, 0.5 mL/min; mobile phase A: 25% Acetonitrile with 0.1% TFA; mobile phase B: 100% Acetonitrile with 0.1% TFA. The multi-step buffer gradient goes from 100% A to 100% B over 26 minutes. […]

[2] = tested on: T-cells in HAM/TSP culture; assay: Ex vivo spontaneous T-cell proliferation assay using HAM/TSP patient PBMC; type: cell-based, human; conditions: HAM/TSP peripheral blood ex vivo culture
Procedure: Proliferation assays were performed on HAM/TSP patient blood samples with and without the addition of BNZ-γ. These assays evaluated the ability of BNZ-γ to block the function of cytokines, such as IL-2 and IL-15, present in the ex vivo HAM/TSP patient blood culture and prevent spontaneous T-cell proliferation in these samples.
In an ex vivo spontaneous T-cell proliferation assay, PBMC from HAM/TSP patient was cultured at 1×10(6) cells per well of a 96 well plate in RPMI-10% FCS. Increasing concentrations of BNZ-γ peptide were added to each well. As a control, an irrelevant peptide was used in similar fashion. The cells were incubated in a 37° C. CO2 incubator for 3, 4, and 6 days. The amount of 1 uCi of ^3H-thymidine was added to the cells. After an additional 6 hour incubation, cells were harvested their proliferation rate was measured. As indicated in FIG. 5A-FIG. 5D, BNZ-γ peptide inhibits the spontaneous proliferation of T-cells in HAM/TSP culture at a concentration of about 1 ug/ml.
Other immunological markers were additionally measured in this assay. The percentage of the viral specific CD8 cells was measured during the ex vivo culture using viral protein tetramers. The population of CD4+CD25+ cells, a marker of T-cell activation, as well as Ki67 staining, a marker of T-cell proliferation, was monitored in a flow cytometry assay.

IL-21 = assay: NK92 cell proliferation assay (WST-1), IL-21 stimulated; type: cell-based, human; conditions: NK92 cells, 2 days
Source text: (§1) For each of the six γc-cytokines, indicator cell lines: NK92, a human NK cell line NK92 available by American Type Culture Collection (ATCC) (catalog #CRL-2407), CTLL-2, a murine CD8 T cells line available from ATCC, and PT-18, a murine mast cell line and its subclone PT-18β, is transfected with human IL-2Rβ gene to make the cells responsive to IL-2 and IL-15 (Tagaya et al., 1996, EMBO J. 15:4928-39), and is used to quantitatively determine the γc-cytokine's growth-promoting activity (See Current protocols in Immunology from Wiley and Sons for a methodological reference).
(§2) Once the appropriate doses of the cytokine that yield the 50-70% and 95% maximum response from the indicator cell line is determined, various concentrations (ranging from 1 μM to 10 μM) of the purified or synthesized custom derivative peptide is added to each well containing the cytokine and indicator cells. The reduction in light absorbance at 450 nm is used as an indicator of inhibition of cytokine-stimulated cellular proliferation.
(§3) The human NK cell line NK92 was used for a dose response of SEQ ID NO: 3 against IL-2, IL-15, and IL-21. Cells were cultured with 0.5 nM of recombinant IL-2 in RPMI 10% fetal Calf Serum. […] The growth-responses of the cells were determined 2 days after the introduction of SEQ ID NO: 3 and the cytokine using the WST-1 assay. […]

[3] = tested on: IL-15 mediated phosphorylation of STAT-5; assay: IL-15 mediated phosphorylation of STAT5 in CTLL-2 cells (immunoblot); type: cell-based, murine; conditions: anti-phospho-STAT5 immunoblot
Source text: (§4) Similar to the IL-15 induced tyrosine phosphorylation of STAT5 via Jak3, it is well known in the art that Jak-STAT signaling mediated via IL-21 receptor binding preferentially induces Jak-mediated tyrosine phosphorylation of STAT3 (Habib et al. 2003 J Allergy Clin Immunol. 112:1033-45). In accordance with these published data, the ability of SEQ ID NO: 3 to inhibit the tyrosine phosphorylation of the STAT5 molecule by IL-2 or IL-15 in CTLL-2 cells, and the ability of SEQ ID NO: 3 to inhibit the tyrosine phosphorylation of the STAT3 molecule by IL-21 in NK92 cells was examined (results shown in FIG. 4B).
(§5) CTLL-2 cells were stimulated by IL-2 or IL-15 in the presence or absence of SEQ ID NO: 3. CTLL-2 cells were also stimulated by IL-2 or IL-15 in the presence of anti-IL-2 antibody (R & D Systems, Catalog #MAB202, Minneapolis, MN) or anti-IL-15 antibody (R & D Systems, Catalog #MAB247, Minneapolis, MN) as positive controls. NK92 cells were stimulated by IL-21 in the presence or absence of SEQ ID NO: 3. NK92 cells were also stimulated by IL-21 in the presence of anti-IL-21 antibody (Mabtech, Catalog #3540-1-250, Cincinnati, OH) as a positive control. Cytoplasmic proteins were extracted from the cells according to a conventional method as described in Tagaya et al. 1996 EMBO J. 15:4928-39. […]

[4] = tested on: IL-21 mediated phosphorylation of STAT-3; assay: IL-21 mediated phosphorylation of STAT3 in NK92 cells (immunoblot); type: cell-based, human; conditions: anti-phospho-STAT3 immunoblot
Source text: as §4, §5

[5] = tested on: IL-2 mediated phosphorylation of STAT-5; assay: IL-2 mediated phosphorylation of STAT5 in CTLL-2 cells (immunoblot); type: cell-based, murine; conditions: anti-phospho-STAT5 immunoblot
Source text: as §4, §5

IL-9 = assay: NK92 cell proliferation assay (WST-1), IL-9 stimulated; type: cell-based, human; conditions: NK92 cells, peptide 2.5 μM (70% purity), 2 days
Source text: as §1, §2
(§6) The human NK cell line NK92 was used to determine the γc-cytokine inhibitory specificity of SEQ ID NO: 3. In this assay the cells were cultured with 0.5 nM of recombinant IL-2 in RPMI 10% fetal Calf Serum. […] The growth-responses of the cells were determined 2 days after the introduction of SEQ ID NO: 3 and the cytokine using the WST-1 assay. […]

IL-15 = assay: NK92 cell proliferation assay (WST-1), IL-15 stimulated; type: cell-based, human; conditions: NK92 cells, 2 days
Source text: as §1, §2, §3

IL-4 = assay: NK92 cell proliferation assay (WST-1), IL-4 stimulated; type: cell-based, human; conditions: NK92 cells, peptide 2.5 μM (70% purity), 2 days
Source text: as §1, §2, §6

IL-2 = assay: NK92 cell proliferation assay (WST-1), IL-2 stimulated; type: cell-based, human; conditions: NK92 cells, 2 days
Source text: as §1, §2, §3

[6] = tested on: IL-12 induction of IFNγ gene transcription; assay: IL-12 induced IFNγ gene transcription in NK92 cells (qPCR); type: cell-based; conditions: peptide 10 minutes pre-treatment, human IL-12 1 ng/mL for 2 hours
Source text: (§7) The cytokine interferon gamma (IFNγ) represents a useful marker for inflammation in multiple human immune-inflammatory disease states. Transcription of the IFNγ gene is inducible by IL-15, IL-21, the non-γc cytokine IL-12, and other select cytokines. The ability to block cytokine-induced IFNγ transcription therefore represents another useful approach to determine the biological activity of custom peptide derivatives.
(§8) NK92 cells were brought to a quiescent state by PBS washing and culturing in the absence of cytokine for 48 hours. Cells were treated with SEQ ID NO: […] for 10 minutes, and then stimulated with human IL-15, IL-21, or IL-12 at 1 ng/mL for 2 hours. A cytokine only treatment group, and another treatment group where the NK92 cells were left untreated by peptide, and not stimulated by cytokine were also included as control conditions. Following incubation with peptide and cytokine, cells were harvested, RNA was isolated for cDNA generation and used as template for qPCR analysis to quantify IFNγ transcripts.

[7] = tested on: IL-15 induction of IFNγ gene transcription; assay: IL-15 induced IFNγ gene transcription in NK92 cells (qPCR); type: cell-based; conditions: peptide 10 minutes pre-treatment, human IL-15 1 ng/mL for 2 hours
Source text: as §7, §8

[8] = tested on: IL-21 induction of IFNγ gene transcription; assay: IL-21 induced IFNγ gene transcription in NK92 cells (qPCR); type: cell-based; conditions: peptide 10 minutes pre-treatment, human IL-21 1 ng/mL for 2 hours
Source text: as §7, §8

[9] = peptide 0-0.1 μM (>99% purity), cytokine at 70% proliferation level

CC[C@H](C)[C@H](NC(=O)[C@]1(C)CCCC=CCCC[C@](C)(NC(=O)[C@@H](Cc2c[nH]cn2)NC(=O)[C@@]2(C)CCCC=CCCC[C@](C)(NC(=O)[C@@H](Cc3ccccc3)NC(=O)[C@@H](CCC(=O)O)NC(=O)[C@@H](CCCCN)NC(=O)[C@H]3CCCN3C(=O)[C@@H](CCCNC(=N)N)NC(=O)[C@@H](CCCNC(=N)N)NC(=O)[C@@H](CCCNC(=N)N)NC(=O)[C@H](N)CCCNC(=N)N)C(=O)N[C@@H](CCC(=O)O)C(=O)N[C@@H](CCCNC(=N)N)C(=O)N[C@@H](Cc3ccccc3)C(=O)N2)C(=O)N[C@@H](C(C)C)C(=O)N[C@@H](CCC(N)=O)C(=O)N[C@@H](CC(C)C)C(=O)N1)C(=O)N[C@H](Cc1c[nH]cn1)C(=O)N[C@H](CCC(N)=O)C(=O)N[C@H](CO)C(=O)N[C@H](CC(C)C)C(=O)N[C@H](CO)C(=O)O [SEQ ID NO: 57, {dR}-{dR}-{dR}-{dR}-{dP}-{dK}-{dE}-{dF}-{S5Ala1}-E-R-F-{R5Ala1}-{dH}-{S5Ala2}-V-Q-L-{S5Ala2}-I-{dH}-{dQ}-{dS}-{dL}-{dS}] (H-[dR][dR][dR][dR][dP][dK][dE][dF][S5]ERF[R5][dH][S5]VQL[S5]I[dH][dQ][dS][dL][dS]-OH; staple 9-13, 15-19; N-terminus and C-terminus assumed)
percentage of undigested peptide present in simulated intestinal fluid, compared to the unmodified peptide [1]: greatly enhanced

IKEFLQRFIHIVQSIINTS [BNZ-γ, I-K-E-F-L-Q-R-F-I-H-I-V-Q-S-I-I-N-T-S]
percent of live cells by Guava staining [2]: not impacted

PKEFLERFVHLVQMFIHQSLS (PKEFLERFVHLVQMFIHQSLS) [SEQ ID NO: 3, 21-mer composite peptide of γc-cytokine D-helix regions]
activity of IL-21 (dose response) (IL-21; [9]): potently inhibited | activity of IL-21 (inhibitory specificity) (IL-21; peptide 2.5 μM (70% purity)): significantly reduced | IL-15 mediated phosphorylation of STAT-5 [3]: inhibited | IL-21 mediated phosphorylation of STAT-3 [4]: inhibited | IL-2 mediated phosphorylation of STAT-5 [5]: but not IL-2 mediated phosphorylation of STAT-5 | cellular proliferation stimulated by IL-9 (inhibitory specificity) (IL-9): not affected | activity of IL-15 (dose response) (IL-15; [9]): potently inhibited | activity of IL-15 (inhibitory specificity) (IL-15; peptide 2.5 μM (70% purity)): significantly reduced | cellular proliferation stimulated by IL-4 (inhibitory specificity) (IL-4): not affected | cellular proliferation stimulated by IL-2 (dose response) (IL-2; peptide 0-10 μM (>99% purity), cytokine at 70% proliferation level): not affected | cellular proliferation stimulated by IL-2 (inhibitory specificity) (IL-2; peptide 2.5 μM (70% purity)): not affected

{S5Ala1}-P-K-E-{S5Ala1}-L-E-R-F-V-H-L-V-Q-K-{S5Ala2}-I-H-Q-{S5Ala2}-L-S [SEQ ID NO: 83]
non-γc cytokine IL-12 induction of IFNγ gene transcription [6]: did not block | IL-15 induction of IFNγ gene transcription [7]: inhibition | IL-21 induction of IFNγ gene transcription [8]: inhibition
